The values below are quoted from earlier work in patent publication EP3315966A1, “STANDARD THYROID GLAND HORMONE SOLUTION” (Fujirebio Inc., priority 2015, dated 2017).

For orientation: pKa means the pH at which an ionisable group is half protonated.

The conditions of this series: buffer substance of the standard solution.

Molecules are shown by their SMILES.

As for `O=S(=O)(O)CCCNC1CCCCC1` [CAPS, N-cyclohexyl-3-aminopropanesulfonic acid], the pKa is on record as 10.4.
